Test results: US10350176B2 (priority 2013, dated 2019)
Like-named read-outs stand apart in the source and are kept apart here.

Key:
[1] = system: MRC5 (fetal lung fibroblasts); conditions: DPI 9.8 nM-1.25 μM; 48 hours incubation
Method: (§1) Human cells CCD 841 (intestinal epithelial cells) and MRC5 (fetal lung fibroblasts) in appropriate growth media were dispensed into black 384-well plates (Corning, cat. No. 3571) at a density of 15,000 cells/25 μl/well using a Multidrop Combi (Thermo Scientific). After 48 hours incubation at 37° C. and 5% CO2, cell viability was determined using a commercial assay CellTiter Blue Cell Viability Assay (Promega, cat. No. G8082). […] Fluorescence intensity was measured by the detector (reader) EnVision (Perkin Elmer), and measured data were analysed using the software Prism5 (GraphPad Software, Inc.).

Leishmania major = conditions: primary screening, library compounds at 1 μM
Method: The compounds were screened for growth inhibition of the parasite Leishmania major.
The compounds were reformatted into 384-well polypropylene plates (Corning, cat. No. 3657) at a final concentration of 1 μM in DMSO and used to screen the growth inhibition of the parasite Leishmania major.

[2] = system: CCD 841 (intestinal epithelial cells); conditions: DPI 9.8 nM-1.25 μM; 48 hours incubation
Method: as §1

[3] = system: Leishmania major in amastigote form; experiment: Cytotoxic effect on intracellular amastigotes in macrophages (flow cytometry, cell smears); format: cell-based; conditions: concentration at which number of infected macrophages decreased by 50%; 48 hours co-incubation
Method: Macrophage precursors were isolated from bone marrow and incubated for 7 days at 37° C. and 5% CO2 in DMEM supplemented with supernatant of L929 cells (20 percent by volume) containing M-CSF. After differentiation the macrophages were infected with E-GFP-L. major in stationary phase of growth at a ratio of 1:10. Then the macrophages were incubated in DMEM supplemented with the supernatant of L929 cells (20% volume) containing M-CSF at 37° C. and 5% CO2. After 24 hours, the medium containing the extracellular parasites was discarded and the plates were washed 3 times with HBSS medium (Hanks' Balanced Salt Solution, Sigma, St. Louis, Mo., cat. No. H9269). […]
The samples were analyzed on a FACSCalibur flow cytometer (Becton, Dickinson and Company, Franklin Lakes, N.J.) using CellQuest Pro software (Becton, Dickinson and Company, Franklin Lakes, N.J.). […] The results were measured for 10,000 macrophages in the first experiment and for 20,000 macrophages in the second experiment. […]
Smears were stained with Giemsa (Sigma, St. Louis, Mo., cat. No. 11700) and analysed by fluorescence microscopy Leica6000DM (Leica Microsystems GmbH, Wetzlar, Germany) at a magnification 400×. The total number of parasites in 500 macrophages was determined. […]

Plasmodium falciparum = conditions: kills Plasmodium falciparum; Yuan et al. Nat Chem Biol 2009; cited from earlier work
[4] = system: L. major, antimony salts resistant, in promastigote form; experiment: Promastigote growth inhibition assay, strain resistant to antimony salts; format: cell-based, Leishmania major; conditions: 48 hours incubation
Method: Leishmania promastigotes in the logarithmic growth phase were dispensed into black 384-well plates (Corning, New York, N.Y., cat. No. 3571) at a concentration of 15,000 parasites/μl/well using a Multidrop Combi instrument (Thermo Fisher Scientific Inc., Waltham, Mass.). Immediately thereafter DPI (1 nM-500 nM) or amphotericin B (20 nM-10 μM) were added using “pitool” connected to JANUS® Automated Workstation (PerkinElmer Inc., Waltham, Mass.) and incubated for 48 hours. The metabolic capacity of the parasite was measured after 2.5 hours of incubation using the CellTiter-Blue® Reagent (Promega Corporation, Madison, Wis., cat. No. G8082) using EnVision Multilabel Reader (PerkinElmer Inc., Waltham, Mass.). Data were analyzed using non-linear regression (log (inhibitor) vs. response-variable slope). Preparation of the graphs and IC50 calculation were performed using GraphPad Prism 5 software (GraphPad Software, USA). The IC50 value was calculated by non-linear regression method as the concentration of DPI in which the number of viable promastigotes was reduced by 50% (values given below in Table 1).

[5] = system: Leishmania major in promastigote form; experiment: Promastigote growth inhibition assay (CellTiter-Blue); format: cell-based; conditions: 48 hours incubation; number of viable promastigotes reduced by 50%; read-out: L. major, in promastigote form (IC50)
Method: Antiparasitic activity in culture of promastigotes (insect form) was measured using a standard microdiluting method, determining the minimum inhibitory concentration (MIC) of the test sample, which leads to inhibition of parasite growth.
For promastigote growth inhibition assays the subculture 2 of L. major was cultured in Schneider's insect medium (Sigma, St. Louis, Mo., cat. No. S0146) supplemented with 50 μm/ml gentamicin (Sigma, St. Louis, Mo., cat. No. G1272), 63.7 μg/ml penicillin G (Sigma, St. Louis, Mo., cat. No. PENK), 100 μg/ml streptomycin (Sigma, St. Louis, Mo., cat. no. S6501), 2% human urine and 10% heat-inactivated fetal bovine serum (Sigma, St. Louis, Mo., cat. No. F2442).
Leishmania promastigotes in the logarithmic growth phase were dispensed into black 384-well plates (Corning, New York, N.Y., cat. No. 3571) at a concentration of 15,000 parasites/μl/well using a Multidrop Combi instrument (Thermo Fisher Scientific Inc., Waltham, Mass.). […] The metabolic capacity of the parasite was measured after 2.5 hours of incubation using the CellTiter-Blue® Reagent (Promega Corporation, Madison, Wis., cat. No. G8082) using EnVision Multilabel Reader (PerkinElmer Inc., Waltham, Mass.). Data were analyzed using non-linear regression (log (inhibitor) vs. response-variable slope). […]

| Compound | viability of human MRC5 cells [1] | growth inhibition of the parasite Leishmania major (Leishmania major) | growth inhibition of the parasite Leishmania major (Leishmania major; listed as diphenyleneiodonium (DPI)) | viability of human CCD 841 cells [2] | L. major, in intracellular amastigote form (LD50, μM) [3] | IC50 (Plasmodium falciparum) | IC50 [4] | IC50 [5] |
| --- | --- | --- | --- | --- | --- | --- | --- | --- |
| c1ccc2c(c1)[I+]c1ccccc1-2 [DPI, [1,1′-biphenyl]-2,2′-diyliodonium] | no negative effect on the viability | potent inhibitor of the growth of Leishmania major | effective inhibitor | no negative effect on the viability | 0.066 µM | 0.06 to 1 nM | 15 nM | 10 nM |
| C[C@@H]1[C@H](O)[C@@H](C)/C=C/C=C/C=C/C=C/C=C/C=C/C=C/[C@H](O[C@@H]2O[C@H](C)[C@@H](O)[C@H](N)[C@@H]2O)C[C@@H]2O[C@](O)(C[C@@H](O)C[C@@H](O)[C@H](O)CC[C@@H](O)C[C@@H](O)CC(=O)O[C@H]1C)C[C@H](O)[C@H]2C(=O)O [amphotericin B, reference compound] |  |  |  |  | 0.143 µM |  | 43 nM | 39 nM |
